Consider 5 compounds from paper PMC9268166, “Modeling of Anticancer Sulfonamide Derivatives Lipophilicity by Chemometric and Quantitative Structure-Retention Relationships Approaches” (Molecules, 2022).

In general, pIC50 refers to the negative decadic logarithm of the IC50, by convention in mol/L. Broadly, the chromatographic logD is lipophilicity estimated from chromatographic retention.

Series [1] has as its system human colon cancer (HCT-116). Further details: method as in PMID 29772699, PMID 28122174, PMID 27338337, PMID 26506328. Conditions: HCT-116 cell line; cited from earlier work.
A short description of series [2]: Cyanopropyl (CN) chromatography, logkw from two gradients with DryLab. The following applies: for logkw, Table S5: Cyanopropyl chromatography, pH 7.4, short and long gradient; for logkwCN: pH 7.4, 40 °C, retention factor extrapolated to 0% organic modifier. Type of series: physicochemical. The text has this: (§1) For this reason, the next step of our study concerns the characterization of investigated sulfonamide derivatives using a chromatographic approach. Generally, in RP-HPLC, the interactions between solutes and the stationary phase surface are mainly governed by lipophilicity. Consequently, RP-HPLC is the primary tool for assessing the lipophilicity of xenobiotics. […] Generally, the chemical character of target solutes determines interactions between the molecule and the stationary phase that may occur. Considering the large variety of RP-HPLC beds and differences in specific surface area, the energy of the sorbent’s intermolecular interactions between solutes and chemical structures, four different reversed-phase stationary phases and IAM column were investigated during this study. The lipophilicity index was presented as a logkw value, so the retention factor was extrapolated to the pure water after calculation using a protocol based on two gradient measurements and DryLab software.
(§2) Since the biomimetic chromatography experiments are carried out at physiological pH to compare obtained results, all chromatographic experiments have been carried out at pH 7.4. […] Consequently, the chromatography lipophilicity indices refer to the distribution coefficient (logD) values, which better reflect the lipophilicity of ionized substances under physiological conditions.
(§3) For C8, cyanopropyl, and phenyl chromatography, according to the assumption proposed by Snyder and co-workers, appropriate logkw values (i.e., the retention factor logk extrapolated to 0% organic modifier, as an alternative to logP) were obtained. […] Dwell volume for these HPLC systems was measured at 0.780 mL, whereas the obtained dead times for used HPLC columns were equal to 1.530 min, 1.252 min, and 2.335 min for C8, SB-CN, and UK-Phenyl, respectively. The mobile phase was ammonium acetate buffer (50 mM) at pH 7.4 and acetonitrile as an organic modifier in each system. C8 chromatography was performed on Unison UK-C8 column (150 × 2 mm; 3.0 µm. Imtakt; USA) with 0.3 mL/min flow rate. Analyses were carried out in linear gradient from 30 to 100% within 15 min in short gradient and 30 min in long gradient. The Agilent SB-CN column (150 × 4.6 mm; 3.5 µm; Zorbax; USA) was used for the cyanopropyl chromatography. The CN chromatography analyses were carried out in linear gradient from 20 to 100%, which was applied from 0 to 20 min in short gradient, and from 0 to 40 min in long gradient. The flow rate was 1.5 mL/min. The column Unison UK-Phenyl (150 × 2 mm; 3.0 µm; Imtakt; USA) was used to perform phenyl chromatography. The flow rate was set to 0.2 mL/min. The phenyl analyses were carried out in linear gradient from 40 to 100%, which was applied from 0 to 20 min in short gradient, and from 0 to 40 min in long gradient. Each HPLC analysis was run in triplicate; in Tables S2–S6, obtained retention times are listed, whereas representative chromatograms are shown in Figure 9.

Series [3] is described as follows: Phenyl (Ph) chromatography, logkw from two gradients with DryLab. Conditions: for logkw, Table S6: Phenyl chromatography, pH 7.4, short and long gradient; for logkwPh: pH 7.4, 40 °C, retention factor extrapolated to 0% organic modifier. It counts as physicochemical.
Excerpt: as §1, §2, §3

Series [4] can be described thus: C18 chromatography (RP-HPLC), chromatographic hydrophobicity index. It counts as physicochemical. Conditions: for chromatographic logD: Waters Symmetry C18 column, CHI log D = 0.0525 CHIC18 − 1.467, pH 7.4; for CHIC18: pH 7.4, 40 °C, acetonitrile gradient.
Excerpt: as §1, §2
(§4) All HPLC experiments were carried out using a Prominence-1 LC-2030C 3D HPLC system (Shimadzu, Japan) equipped with a DAD detector and controlled by the LabSolution system (version 5.90 Shimadzu, Japan). The stock solutions of solutes were diluted to obtain 100 μg/mL concentrations, and the injected volume was 10 μL. During this study, six different columns in terms of chemical modification of stationary phases were used. Retention times (tR) of investigated sulfonamides were collected, and their detection in all systems was performed at the wavelength characteristic for each compound, summarized in Table S1. For all chromatography systems, analysis was carried out at 40 °C, except for IAM chromatography, in which oven temperature was set to 30 °C. The CHIIAM and CHI18 indices of the target sulfonamides derivatives were obtained using the protocol proposed by Valko and co-workers. C18 chromatography was performed on a Waters-C18 column (150 mm × 3.9 mm; 5.0 µm; Symmetry; USA), with a 1.5 mL/min flow rate. The mobile phase was ammonium acetate buffer (50 mM) at pH 7.4 and acetonitrile as an organic modifier. The linear gradient from 2 to 98% ACN was applied from 0 to 30 min. IAM chromatography was executed on an IAM.PC.DD2 column ([…] × 4.6 mm; 10.0 µm; Regis Technologies, Morton Grove, IL, USA) additionally equipped with an IAM guard column with the same flow rate of 1.5 mL/min. The mobile phase was sodium phosphate buffer (10 mM) at pH 7.4 and acetonitrile as the organic phase. The linear gradient from 0 to 85% was applied within 5.25 min.

Series [5] can be described thus: C8 chromatography (RP-HPLC), logkw from two gradients with DryLab. Type of series: physicochemical. The following applies: for logkw, Table S4: C8 chromatography, pH 7.4, short and long gradient; for logkwC8: pH 7.4, 40 °C, retention factor extrapolated to 0% organic modifier.
Excerpt: as §1, §2, §3

Series [6] is described as follows: IAM chromatography (IAM-HPLC), IAM.PC.DD2 column. Type of series: physicochemical. Conditions: for logkIAM: logkIAM = 0.045 CHIIAM + 0.42; for logkIAM / CHI (CHIIAM), Table S2: pH 7.4; for CHIIAM: pH 7.4, 30 °C, acetonitrile gradient; for CHI (CHIIAM), Table S2: IAM chromatography, from mean of three retention times.
Excerpt: as §1, §2, §4

For `COc1ccc(-c2cnnc(NS(=O)(=O)c3cc(C(=O)Nc4ccc(C)cc4)c(Cl)cc3SCc3ccccc3)n2)cc1` [Compound 18], in series [1], the pIC50 is on record as 4.12. In series [2], the “logkw, Table S5” value is reported as 2.358 and the logkwCN was 2.36. Besides, in series [3], the “logkw, Table S6” value turned out to be 4.228 and the logkwPh was 4.23. In series [4], the chromatographic logD is 2.88 and the CHIC18 amounted to 82.80. In series [5], the “logkw, Table S4” value stood at 4.280 and the logkwC8 is 4.28. In addition, in series [6], the logkIAM worked out at 2.11 and the CHIIAM was determined as 37.50.
Take `COc1ccc(-c2cnnc(NS(=O)(=O)c3cc(C)c(Cl)cc3SCc3cccc4ccccc34)n2)cc1` [Compound 23]: in series [1], the pIC50 is 4.42. Further, in series [2], the “logkw, Table S5” value was determined as 2.478 and the logkwCN is 2.48. Also, in series [3], the “logkw, Table S6” value amounted to 4.401 and the logkwPh is 4.40. In series [4], this compound had a chromatographic logD of 3.05 and a CHIC18 of 86.10. Moreover, in series [5], the “logkw, Table S4” value was found to be 4.120 and the logkwC8 is 4.12. In addition, in series [6], the “CHI (CHIIAM), Table S2” value is on record as 41.1 and the logkIAM came to 2.27.
Regarding `Cc1cc(S(=O)(=O)Nc2nnc(Cc3ccccc3)c(=O)[nH]2)c(SCc2cc3c(cc2Cl)OCO3)cc1Cl` [Compound 11], the pIC50 in series [1] is recorded as 4.06. Also, in series [2], the “logkw, Table S5” value worked out at 2.130 and the logkwCN is given as 2.13. Moreover, in series [3], the “logkw, Table S6” value is recorded as 3.824 and the logkwPh is 3.82. For the same compound, in series [4], the chromatographic logD stood at 2.75 and the CHIC18 worked out at 80.30. Further, in series [5], the “logkw, Table S4” value was determined as 4.074 and the logkwC8 is on record as 4.07. Moreover, in series [6], the “CHI (CHIIAM), Table S2” value is 35.5 and the logkIAM is recorded as 2.02.
In the case of `COc1ccc(-c2cnnc(NS(=O)(=O)c3cc(C(=O)Nc4ccccc4)c(Cl)cc3SCc3ccccc3)n2)cc1` [Compound 14], the pIC50 in series [1] is on record as 4.11. Also, in series [2], the “logkw, Table S5” value is listed as 2.020 and the logkwCN is given as 2.02. In series [3], the “logkw, Table S6” value amounted to 4.310 and the logkwPh was 4.31. In series [4], this compound displayed a chromatographic logD of 2.68 and a CHIC18 of 78.90. In series [5], the “logkw, Table S4” value worked out at 4.130 and the logkwC8 is reported as 4.13. In series [6], the logkIAM is given as 2.03 and the CHIIAM is 35.80.
Regarding `Cc1cc(S(=O)(=O)Nc2nncc(-c3ccc(C(F)(F)F)cc3)n2)c(SCc2ccc(C(F)(F)F)cc2)cc1Cl` [Compound 21], the pIC50 in series [1] was 4.29. For the same compound, in series [2], the “logkw, Table S5” value was determined as 2.110 and the logkwCN is on record as 2.11. In series [3], the “logkw, Table S6” value was determined as 4.480 and the logkwPh is reported as 4.48. In series [4], this compound showed a chromatographic logD of 3.34 and a CHIC18 of 91.60. For the same compound, in series [5], the “logkw, Table S4” value was determined as 4.440 and the logkwC8 was 4.44. For the same compound, in series [6], the logkIAM is reported as 2.28 and the CHIIAM turned out to be 41.30.
